From the supplement of paper PMC11208160

experiment: recombinant barcode read abundance after kanamycin selection (control-corrected) (log10(CPM+1)); higher = more efficient recombination; sequences stand for … in AGTGCAGAGAAAATCGGCCAGTTTTCTCTGCCTGCAGTCCGCATGCCGT…AGATTTATGCAGCGGACTGCCTTTCTCCCAAAGTGATAAACCGGACAGTATCATGGACCGGTTTTCCCGGTAATCCGTATTTGCAAGGTTGGTTTCACT; site = the 11-nt target
Method in brief: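 In E. coli, a pooled library matched targets to IS621 bridge RNA target-binding loops and was introduced alongside a donor plasmid. Cells went onto chloramphenicol/ampicillin/kanamycin with 0.1 mM IPTG or onto chloramphenicol/ampicillin LB agar as control, in duplicate. Recombination efficiency, from recombinant-junction barcodes as counts per million, is averaged and control-corrected. It is reported as log10(CPM+1).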
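Also: IS621 recombinase and bridge RNA in Escherichia coli cells.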

Row | Sequence | recombinant barcode read abundance (log10)
1 | CATGGGCCTTGGGTTCTAACCTGTTGCCT (site CATGGGCCTAG) | 0.0279
2 | CATGGGCCTTGGGTTCTAACCTGTTGCCT (site CCTGGGCCTAG) | 0.0246
3 | CATGGGCCTTGGGTTCTAACCTGTTGCCT (site CGTGGGCCTAG) | 0.151
4 | CATGGGCCTTGGGTTCTAACCTGTTGCCT (site CTTGGGCCTAG) | 0.174
5 | CATGGGTCTTGGGTTCTAACCTGTTGCCT (site CATGGGTCTAG) | 1.45
6 | CATGGGTCTTGGGTTCTAACCTGTTGCCT (site CCTGGGTCTAA) | 0.0946
7 | CATTAACCTTGGGTTCTAACCTGTTGCCT (site CATTAACCTAG) | 1.15
8 | CATTAACCTTGGGTTCTAACCTGTTGCCT (site TACTAACCTAG) | 0.208
9 | CATTACTCTTGGGTTCTAACCTGTTGCTT (site CATTACTCTAA) | 0.622
10 | CATTACTCTTGGGTTCTAACCTGTTGCTT (site CTTTCCTCTAA) | 0.032
11 | CATTCACCTTGGGTTCTAACCTGTTGCCT (site AATTCACCTAG) | 0.153
12 | CATTCACCTTGGGTTCTAACCTGTTGCCT (site CATTCACCTAG) | 0.39
13 | CATTCACCTTGGGTTCTAACCTGTTGCCT (site GATTCACCTAG) | 0.0621
14 | CATTCACCTTGGGTTCTAACCTGTTGCCT (site TATTCACCTAG) | 0.111
15 | CATTTAGCTTGGGTTCTAACCTGTTGCGG (site AGGGCGCCTAA) | 0.0282
16 | CATTTAGCTTGGGTTCTAACCTGTTGCGG (site CATTTAGCTCC) | 1.06
17 | CATTTCCCTTGGGTTCTAACCTGTTGCCT (site CATTTCCCTAA) | 0.0164
18 | CATTTCCCTTGGGTTCTAACCTGTTGCCT (site CATTTCCCTAG) | 0.23
19 | CCAAATCCTTGGGTTCTAACCTGTTGCAT (site CCAAATCCTAT) | 0.189
20 | CCAAATCCTTGGGTTCTAACCTGTTGCAT (site TGTCTAGCTCC) | 0.697
21 | CCAAGCACTTGGGTTCTAACCTGTTGCCT (site CCAAGCACTAG) | 0.624
22 | CCAAGCACTTGGGTTCTAACCTGTTGCCT (site CCAAGCCCTAG) | 0.138

Row | Sequence | recombinant barcode read abundance (log10)
23 | CCAAGCACTTGGGTTCTAACCTGTTGCCT (site CCAAGCGCTAG) | 0.0822
24 | CCAAGCACTTGGGTTCTAACCTGTTGCCT (site CCAAGCTCTAG) | 0.172
25 | CCAAGGCCTTGGGTTCTAACCTGTTGCCG (site CCAAGGCCTCG) | 0.0466
26 | CCAAGGCCTTGGGTTCTAACCTGTTGCCG (site TTCGCATCTAA) | 0.208
27 | CCAAGGGCTTGGGTTCTAACCTGTTGCGG (site CCAAGGGCTCA) | 0.628
28 | CCAAGGGCTTGGGTTCTAACCTGTTGCGG (site CCAAGGGCTCC) | 2.52
29 | CCAAGGGCTTGGGTTCTAACCTGTTGCGG (site CCAAGGGCTCG) | 0.094
30 | CCAAGGGCTTGGGTTCTAACCTGTTGCGG (site CCAAGGGCTCT) | 2.18
31 | CCAAGTACTTGGGTTCTAACCTGTTGCTT (site CCAAGTACTAA) | 0.387
32 | CCAAGTACTTGGGTTCTAACCTGTTGCTT (site CCACGAACTAA) | 0.106
33 | CCAATGTCTTGGGTTCTAACCTGTTGCGT (site CCAATGTCTAC) | 1.03
34 | CCAATGTCTTGGGTTCTAACCTGTTGCGT (site GTTCGTCCTTG) | 0.047
35 | CCACACACTTGGGTTCTAACCTGTTGCCT (site CAATACACTAG) | 0.0103
36 | CCACACACTTGGGTTCTAACCTGTTGCCT (site CCACACACTAG) | 0.345
37 | CCACCGACTTGGGTTCTAACCTGTTGCCT (site CCACCGACTAG) | 0.0699
38 | CCACCGACTTGGGTTCTAACCTGTTGCCT (site GCACCAACTAG) | 0.257
39 | CCACCGCCTTGGGTTCTAACCTGTTGCCT (site ACACCGCCTAG) | 0.0161
40 | CCACCGCCTTGGGTTCTAACCTGTTGCCT (site CCACCGCCTAG) | 0.139
41 | CCACCGCCTTGGGTTCTAACCTGTTGCCT (site GCACCGCCTAG) | 0.211
42 | CCACCGCCTTGGGTTCTAACCTGTTGCCT (site TCACCGCCTAG) | 0.0912
43 | CCACGTTCTTGGGTTCTAACCTGTTGCCT (site CCACGTTCTAG) | 0.181
44 | CCACGTTCTTGGGTTCTAACCTGTTGCCT (site CTACGTTCTAG) | 0.0541

Row | Sequence | recombinant barcode read abundance (log10)
45 | CCACTAGCTTGGGTTCTAACCTGTTGCAG (site AATGGGTCTAA) | 0
46 | CCACTAGCTTGGGTTCTAACCTGTTGCAG (site CCACTAGCTCT) | 0.85
47 | CCACTGCCTTGGGTTCTAACCTGTTGCCT (site CCACTACCTAG) | 0.734
48 | CCACTGCCTTGGGTTCTAACCTGTTGCCT (site CCACTCCCTAG) | 0.229
49 | CCACTGCCTTGGGTTCTAACCTGTTGCCT (site CCACTGCCTAG) | 0.862
50 | CCACTGCCTTGGGTTCTAACCTGTTGCCT (site CCACTTCCTAG) | 0.0699
51 | CCAGAGTCTTGGGTTCTAACCTGTTGCCG (site CCAGAGTCTCG) | 0.288
52 | CCAGAGTCTTGGGTTCTAACCTGTTGCCG (site CCAGAGTCTTG) | 0.152
53 | CCAGATTCTTGGGTTCTAACCTGTTGCCT (site CAAGATTCTAG) | 0.154
54 | CCAGATTCTTGGGTTCTAACCTGTTGCCT (site CCAGATTCTAG) | 0.206
55 | CCAGATTCTTGGGTTCTAACCTGTTGCCT (site CGAGATTCTAG) | 0.297
56 | CCAGATTCTTGGGTTCTAACCTGTTGCCT (site CTAGATTCTAG) | 0.144
57 | CCAGTAGCTTGGGTTCTAACCTGTTGCGG (site CCAGAAGCTAC) | 0.0355
58 | CCAGTAGCTTGGGTTCTAACCTGTTGCGG (site CCAGTAGCTCC) | 1.01
59 | CCAGTATCTTGGGTTCTAACCTGTTGCAT (site CCAGTATCTAT) | 0.796
60 | CCAGTATCTTGGGTTCTAACCTGTTGCAT (site TAGCGGCCTCC) | 0.0866
61 | CCATAGGCTTGGGTTCTAACCTGTTGCTG (site CCATAGGCTCA) | 0.732
62 | CCATAGGCTTGGGTTCTAACCTGTTGCTG (site GAGAGAACTAG) | 0.0117
63 | CCATATGCTTGGGTTCTAACCTGTTGCCT (site AACACGACTGA) | 0.0524
64 | CCATATGCTTGGGTTCTAACCTGTTGCCT (site CCATATGCTAG) | 0.148
65 | CCATTCCCTTGGGTTCTAACCTGTTGCTA (site CCATTCCCTTA) | 0.43
66 | CCATTCCCTTGGGTTCTAACCTGTTGCTA (site TTGACGGCTAG) | 0.0589

Row | Sequence | recombinant barcode read abundance (log10)
67 | CCATTGTCTTGGGTTCTAACCTGTTGCCG (site CCATTGTCTCG) | 0.124
68 | CCATTGTCTTGGGTTCTAACCTGTTGCCG (site GTTAGAACTAA) | 0.128
69 | CCGAATTCTTGGGTTCTAACCTGTTGCTT (site CCGAATTCTAA) | 0.113
70 | CCGAATTCTTGGGTTCTAACCTGTTGCTT (site TACCCACCTCT) | 0.00604
71 | CCGAGTCCTTGGGTTCTAACCTGTTGCCT (site CCGAATCCTAG) | 0.328
72 | CCGAGTCCTTGGGTTCTAACCTGTTGCCT (site CCGACTCCTAG) | 0.303
73 | CCGAGTCCTTGGGTTCTAACCTGTTGCCT (site CCGAGTCCTAG) | 0.246
74 | CCGAGTCCTTGGGTTCTAACCTGTTGCCT (site CCGATTCCTAG) | 1.2
75 | CCGATATCTTGGGTTCTAACCTGTTGCCT (site CCGATATCTAG) | 0.287
76 | CCGATATCTTGGGTTCTAACCTGTTGCCT (site CCGCTATCTAG) | 0.707
77 | CCGATATCTTGGGTTCTAACCTGTTGCCT (site CCGGTATCTAG) | 1.97
78 | CCGATATCTTGGGTTCTAACCTGTTGCCT (site CCGTTATCTAG) | 0.567
79 | CCGCAGACTTGGGTTCTAACCTGTTGCCA (site CCGCAGACTTG) | 0.0394
80 | CCGCAGACTTGGGTTCTAACCTGTTGCCA (site TCGCAGACTAG) | 0.0447
81 | CCGCATACTTGGGTTCTAACCTGTTGCCT (site CAGCATACTAG) | 0.0752
82 | CCGCATACTTGGGTTCTAACCTGTTGCCT (site CCGCATACTAG) | 0.277
83 | CCGCATACTTGGGTTCTAACCTGTTGCCT (site CGGCATACTAG) | 0.0516
84 | CCGCATACTTGGGTTCTAACCTGTTGCCT (site CTGCATACTAG) | 0.559
85 | CCGCCGGCTTGGGTTCTAACCTGTTGCCT (site CCGCCAGCTAG) | 0
86 | CCGCCGGCTTGGGTTCTAACCTGTTGCCT (site CCGCCCGCTAG) | 0.222
